The results in this text go back to publication PMC6522510 (Nature Communications, 2019).

Where a name gives a salt, the structure may show the parent alone. Read-outs that look alike come from different tables or passages of the source.

Some test systems named below: CHRF288-11; U937; M07e; CMK; ML-2; MOLM-13; CMS; MV4-11.
Parameters in all cases: species or system AML cell lines (8); Primary HTS, single concentration about 10 uM, Cell Titer Glo viability; log10 luminescence, per cent inhibition relative to cycloheximide control
Holding throughout (conditions): 72 h, relative to cycloheximide control, log10 luminescence, inhibitor
(In general: In ATP-based viability assays light output follows the ATP content of the culture.)

For `C[C@]12CCC(=O)C=C1[C@@H]1C[C@@H]1[C@H]1[C@@H]3[C@@H]4C[C@@H]4[C@@]4(CCC(=O)O4)[C@@]3(C)CC[C@@H]12` [SJ000312356-2, DROSPIRENONE], the CHRF288-11 %inh in the experiment on CHRF288-11 was 6.784%. For the same compound, the U937 %inh in the experiment with U937 is recorded as 3.696%. The M07e %inh in the experiment with M07e came out at 3.09%. In addition, the CMK %inh with CMK was determined as 38.69%. For the same compound, the ML-2 %inh in the experiment with ML-2 is on record as -0.6244%. Also, the MOLM-13 %inh with MOLM-13 is reported as 1.327%. The CMS %inh in the experiment with CMS worked out at 0.9318%. In the experiment on MV4-11, the MV4-11 %inh was found to be 3.583%.

For `N#Cc1cccc(Nc2ncc(-c3ccccc3)o2)c1` [SJ000573137-1, U15924/27/1], in the experiment on CHRF288-11, the CHRF288-11 %inh is on record as -9.448%. In the experiment with U937, the U937 %inh is given as 0.4025%. Moreover, the M07e %inh with M07e is listed as -5.302%. In addition, the CMK %inh in the experiment on CMK came to 10.57%. In addition, the ML-2 %inh with ML-2 is listed as 1.759%. Besides, the MOLM-13 %inh with MOLM-13 was 64.56%. Also, the CMS %inh in the experiment on CMS is recorded as -1.613%. In addition, the MV4-11 %inh with MV4-11 was found to be 38.03%.

As to `C[C@H]1O[C@@H](O[C@H]2[C@@H](O)C[C@H](O[C@H]3[C@@H](O)C[C@H](O[C@H]4CC[C@@]5(C)[C@H](CC[C@@H]6[C@@H]5CC[C@]5(C)[C@@H](C7=CC(=O)OC7)CC[C@]65O)C4)O[C@@H]3C)O[C@@H]2C)C[C@H](O)[C@@H]1O` [SJ000285233-5, DIGITOXIN], the CHRF288-11 %inh in the experiment with CHRF288-11 (CHRF288-11 %inh, 10 µM) amounted to 112.4%. For the same compound, in the experiment on U937 (U937 %inh, 10 µM), the U937 %inh was 78.87%. Besides, the M07e %inh in the experiment on M07e (M07e %inh, 10 µM) came out at 112.2%. Also, in the experiment with CMK (CMK %inh, 10 µM), the CMK %inh was 108.7%. Also, in the experiment on ML-2 (ML-2 %inh, 10 µM), the ML-2 %inh came out at 58.4%. Further, the MOLM-13 %inh with MOLM-13 (MOLM-13 %inh, 10 µM) is 87.24%. For the same compound, in the experiment with CMS (CMS %inh, 10 µM), the CMS %inh is reported as 97.86%. Besides, the MV4-11 %inh in the experiment with MV4-11 (MV4-11 %inh, 10 µM) was 76.58%.

Turning to `Cn1cc(C2=C(c3cccc(Br)c3)C(=O)NC2=O)c2ccccc21` [SJ000580965-1], the CHRF288-11 %inh in the experiment on CHRF288-11 is recorded as 0.5807%. Moreover, the U937 %inh in the experiment on U937 is given as 10.11%. For the same compound, in the experiment on M07e, the M07e %inh is reported as 3.983%. In the experiment on CMK, the CMK %inh is 8.568%. The ML-2 %inh with ML-2 is -0.4526%. For the same compound, in the experiment on MOLM-13, the MOLM-13 %inh is listed as 4.067%. In the experiment on CMS, the CMS %inh stood at 0.1878%. Further, the MV4-11 %inh in the experiment with MV4-11 stood at 8.448%.

`COc1cccc(-n2ncc3c(N/N=C/c4ccc(C)cc4)ncnc32)c1` [SJ000573035-1, U19125/70/4]: the CHRF288-11 %inh in the experiment on CHRF288-11 was -5.466%. In addition, in the experiment with U937, the U937 %inh came to 2.182%. For the same compound, in the experiment with M07e, the M07e %inh is -2.359%. The CMK %inh in the experiment on CMK is on record as -4.291%. The ML-2 %inh in the experiment with ML-2 is on record as -2.47%. For the same compound, in the experiment on MOLM-13, the MOLM-13 %inh is on record as -2.64%. Moreover, the CMS %inh in the experiment on CMS worked out at 5.04%. In addition, in the experiment on MV4-11, the MV4-11 %inh is given as -1.749%.

In the case of `NS(=O)(=O)c1cccc(Nc2cc(-c3ccc(F)cc3)n[nH]2)c1` [SJ000573326-1, T350/64/20], in the experiment on CHRF288-11, the CHRF288-11 %inh is reported as -0.9199%. The U937 %inh with U937 is -2.237%. For the same compound, the M07e %inh in the experiment with M07e came to 6.143%. Moreover, the CMK %inh with CMK is recorded as -1.826%. For the same compound, in the experiment on ML-2, the ML-2 %inh is 1.419%. Also, in the experiment on MOLM-13, the MOLM-13 %inh is 68.76%. For the same compound, in the experiment on CMS, the CMS %inh was 1.139%. The MV4-11 %inh with MV4-11 turned out to be 42.33%.

For `O=C1NC(=NCc2ccccc2Br)S/C1=C\c1ccc2ncccc2c1` [SJ000581153-1], the CHRF288-11 %inh with CHRF288-11 worked out at 2.479%. In addition, the U937 %inh in the experiment on U937 came to 5.903%. Also, in the experiment with M07e, the M07e %inh is 7.782%. The CMK %inh in the experiment on CMK is given as 1.742%. Also, in the experiment on ML-2, the ML-2 %inh is 3.418%. In addition, the MOLM-13 %inh with MOLM-13 turned out to be 2.882%. In the experiment on CMS, the CMS %inh came to 1.226%. In addition, in the experiment with MV4-11, the MV4-11 %inh is recorded as 3.118%.

With `CN[C@@H]1[C@H](O[C@H]2[C@H](O[C@H]3[C@H](O)[C@@H](O)[C@H](N=C(N)N)[C@@H](O)[C@@H]3N=C(N)N)O[C@@H](C)[C@]2(O)C=O)O[C@@H](CO)[C@H](O)[C@H]1O` [SJ000285297-5, STREPTOMYCIN SULFATE], the CHRF288-11 %inh with CHRF288-11 (CHRF288-11 %inh, 10 µM) was -4.766%. Moreover, in the experiment on U937 (U937 %inh, 10 µM), the U937 %inh is recorded as -2.931%. Besides, the M07e %inh in the experiment with M07e (M07e %inh, 10 µM) stood at 1.975%. For the same compound, the CMK %inh in the experiment with CMK (CMK %inh, 10 µM) is listed as -3.106%. In addition, in the experiment with ML-2 (ML-2 %inh, 10 µM), the ML-2 %inh came to 1.375%. Besides, in the experiment on MOLM-13 (MOLM-13 %inh, 10 µM), the MOLM-13 %inh turned out to be 2.09%. For the same compound, the CMS %inh in the experiment on CMS (CMS %inh, 10 µM) is on record as -4.665%. Besides, the MV4-11 %inh in the experiment on MV4-11 (MV4-11 %inh, 10 µM) was 1.701%.

Regarding `COc1ccc2cc(-c3c(-c4ccncc4)nc(-c4ccc([S+](C)[O-])cc4)n3C)ccc2c1` (stereo not shown) [SJ000573130-1, NJ44241-161A1], the CHRF288-11 %inh with CHRF288-11 was determined as 0.3346%. Moreover, the U937 %inh in the experiment with U937 is recorded as -2.991%. In addition, the M07e %inh with M07e is -4.153%. Further, the CMK %inh in the experiment with CMK is recorded as -2.307%. Further, the ML-2 %inh in the experiment with ML-2 is -0.4869%. The MOLM-13 %inh in the experiment on MOLM-13 is recorded as -0.6311%. The CMS %inh with CMS is -2.967%. For the same compound, the MV4-11 %inh with MV4-11 is on record as -3.083%.

Turning to `CC(=O)N(O)CCCCCNC(=O)CCC(=O)N(O)CCCCCNC(=O)CCC(=O)N(O)CCCCCN` [SJ000285725-5, DEFEROXAMINE MESYLATE], in the experiment on CHRF288-11 (CHRF288-11 %inh, 10 µM), the CHRF288-11 %inh came to 11.75%. Besides, the U937 %inh in the experiment with U937 came out at 32.98%. Besides, the M07e %inh in the experiment on M07e (M07e %inh, 10 µM) is 9.207%. Moreover, in the experiment with CMK (CMK %inh, 10 µM), the CMK %inh is 30.74%. Moreover, in the experiment with ML-2 (ML-2 %inh, 10 µM), the ML-2 %inh was 13.98%. In the experiment with MOLM-13 (MOLM-13 %inh, 10 µM), the MOLM-13 %inh stood at 54.77%. Besides, in the experiment on CMS, the CMS %inh is given as 49.53%. Moreover, the MV4-11 %inh in the experiment with MV4-11 (MV4-11 %inh, 10 µM) worked out at 0.1216%.

For `CO[C@@H]1[C@H](OC(=O)/C=C/C=C/C=C/C=C/C(=O)O)CC[C@]2(CO2)[C@H]1[C@@]1(C)O[C@@H]1CC=C(C)C` [SJ000556696-2, FUMAGILLIN], the CHRF288-11 %inh in the experiment on CHRF288-11 (CHRF288-11 %inh, 10 µM) was 24.31%. Further, the U937 %inh in the experiment on U937 (U937 %inh, 10 µM) is listed as 20.26%. Moreover, the M07e %inh in the experiment with M07e (M07e %inh, 10 µM) is on record as 1.679%. Moreover, the CMK %inh with CMK (CMK %inh, 10 µM) was -0.114%. Moreover, the ML-2 %inh in the experiment on ML-2 (ML-2 %inh, 10 µM) is reported as 3.251%. Also, the MOLM-13 %inh with MOLM-13 (MOLM-13 %inh, 10 µM) is listed as 10.06%. Further, the CMS %inh in the experiment with CMS (CMS %inh, 10 µM) came out at 7.757%. For the same compound, in the experiment on MV4-11 (MV4-11 %inh, 10 µM), the MV4-11 %inh is reported as 9.134%.

In the case of `C=CC[C@@H]1[C@H](O)CC[C@@]2(C)[C@H]1CC[C@@H]1[C@@H]2CC[C@]2(C)[C@@H]([C@H](C)CCCC(C)C)CC[C@@H]12` [SJ000561065-1, LY 295427], the CHRF288-11 %inh with CHRF288-11 is given as -1.753%. The U937 %inh in the experiment on U937 was found to be 1.28%. Moreover, the M07e %inh in the experiment on M07e was found to be 2.452%. Moreover, in the experiment with CMK, the CMK %inh is listed as -3.189%. Moreover, the ML-2 %inh with ML-2 stood at 0.971%. Besides, the MOLM-13 %inh in the experiment with MOLM-13 amounted to 1.105%. Besides, in the experiment with CMS, the CMS %inh is listed as -1.154%. Further, in the experiment on MV4-11, the MV4-11 %inh was determined as 0.6492%.

Regarding `Cn1cc(C2=C(c3cn(CCCN)c4ccccc34)C(=O)NC2=O)c2ccccc21` [SJ000581029-1, RO 31-7549], the CHRF288-11 %inh in the experiment with CHRF288-11 is 63.26%. In addition, the U937 %inh in the experiment on U937 is given as 0.8505%. The M07e %inh with M07e is -0.4351%. For the same compound, the CMK %inh in the experiment on CMK is 7.447%. Further, the ML-2 %inh in the experiment with ML-2 was -0.6707%. Besides, the MOLM-13 %inh in the experiment with MOLM-13 is 8.447%. In addition, in the experiment with CMS, the CMS %inh is listed as -0.005694%. The MV4-11 %inh in the experiment with MV4-11 is 2.189%.

Regarding `COc1ccc(-c2cc3c(N)ncnc3o2)cc1` [SJ000573220-1, R6872/65/2], the CHRF288-11 %inh with CHRF288-11 was determined as 23.46%. Further, the U937 %inh in the experiment on U937 is -1.174%. Also, the M07e %inh with M07e came to 10.8%. Also, the CMK %inh in the experiment on CMK stood at 5.591%. In addition, the ML-2 %inh in the experiment on ML-2 is given as 2.103%. In addition, the MOLM-13 %inh with MOLM-13 is listed as 4.813%. In addition, the CMS %inh in the experiment on CMS was found to be 5.247%. In the experiment on MV4-11, the MV4-11 %inh was -2.253%.
